# B1: Folylpolyglutamate synthase, mitochondrial (Homo sapiens), Q05932 (protein)
# chain: MSRARSHLRAALFLAAASARGITTQVAARRGLSAWPVPQEPSMEYQDAVRMLNTLQTNAGYLEQVKRQRGDPQTQLEAMELYLARSGLQVEDLDRLNIIHVTGTKGKGSTCAFTECILRSYGLKTGFFSSPHLVQVRERIRINGQPISPELFTKYFWRLYHRLEETKDGSCVSMPPYFRFLTLMAFHVFLQEKVDLAVVEVGIGGAYDCTNIIRKPVVCGVSSLGIDHTSLLGDTVEKIAWQKGGIFKQGVPAFTVLQPEGPLAVLRDRAQQISCPLYLCPMLEALEEGGPPLTLGLEGEHQRSNAALALQLAHCWLQRQDRHGAGEPKASRPGLLWQLPLAPVFQPTSHMRLGLRNTEWPGRTQVLRRGPLTWYLDGAHTASSAQACVRWFRQALQGRERPSGGPEVRVLLFNATGDRDPAALLKLLQPCQFDYAVFCPNLTEVSSTGNADQQNFTVTLDQVLLRCLEHQQHWNHLDEEQASPDLWSAPSPEPGGSASLLLAPHPPHTCSASSLVFSCISHALQWISQGRDPIFQPPSPPKGLLTHPVAHSGASILREAAAIHVLVTGSLHLVGGVLKLLEPALSQ
# Legend:
# Thymidylate synthase [1] = target: Thymidylate synthase (Escherichia coli, UniProt C3SWJ7); assay: Inhibition of TS from Escherichia coli
# [2] = target: T1, Dihydrofolate reductase (Homo sapiens) (UniProt P00374); assay: Inhibition of recombinant human DHFR at >29 uM
# T1 sequence (whole entry): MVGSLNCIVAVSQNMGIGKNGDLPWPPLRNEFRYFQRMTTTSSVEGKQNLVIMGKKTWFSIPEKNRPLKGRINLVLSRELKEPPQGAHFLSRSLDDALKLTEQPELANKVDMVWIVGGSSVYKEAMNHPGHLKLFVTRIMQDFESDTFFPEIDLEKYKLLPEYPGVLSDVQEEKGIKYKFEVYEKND
# Thymidylate synthase [3] = target: T2, Thymidylate synthase (Homo sapiens, UniProt P04818)
# Target sequence in this assay (P04818 whole entry): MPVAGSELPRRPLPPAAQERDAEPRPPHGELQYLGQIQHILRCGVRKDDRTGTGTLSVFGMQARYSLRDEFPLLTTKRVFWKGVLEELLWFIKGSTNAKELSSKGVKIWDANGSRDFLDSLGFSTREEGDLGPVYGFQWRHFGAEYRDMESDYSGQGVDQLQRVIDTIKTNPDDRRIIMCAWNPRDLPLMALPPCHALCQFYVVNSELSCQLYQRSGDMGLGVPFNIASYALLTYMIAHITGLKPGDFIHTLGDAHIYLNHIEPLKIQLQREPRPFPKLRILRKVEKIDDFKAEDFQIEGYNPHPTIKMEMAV
# [4] = target: Thymidylate synthase (Escherichia coli) (UniProt C3SWJ7); assay: Inhibition of TS from Escherichia coli at >2.0*10-5 nM
# Thymidylate synthase [5] = target: T2, Thymidylate synthase; assay: Inhibition of recombinant human TS at >2.2*10-5 nM
# Target sequence in this assay (P04818 2-313 limits assumed): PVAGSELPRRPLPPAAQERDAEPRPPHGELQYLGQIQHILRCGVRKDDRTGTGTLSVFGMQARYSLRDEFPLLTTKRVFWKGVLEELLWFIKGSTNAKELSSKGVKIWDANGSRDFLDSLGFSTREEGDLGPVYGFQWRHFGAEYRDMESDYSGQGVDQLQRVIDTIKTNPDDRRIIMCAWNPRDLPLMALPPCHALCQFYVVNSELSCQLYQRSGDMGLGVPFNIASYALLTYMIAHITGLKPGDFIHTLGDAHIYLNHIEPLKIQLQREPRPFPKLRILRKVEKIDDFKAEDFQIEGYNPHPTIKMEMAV
# [6] = target: Thymidylate synthase (Escherichia coli) (UniProt C3SWJ7); assay: Inhibition of TS from Escherichia coli at >3.0*10-5 nM
# R1-CCRF-CEM = assay: Inhibition of growth in MTX-resistant CCRF-CEM cell line, R1 cells; assay type: functional, cell-based; details: Homo sapiens
# R2-CCRF-CEM = assay: Inhibition of growth in MTX-resistant CCRF-CEM cell line, R2 cells; assay type: functional, cell-based; details: Homo sapiens
# CCRF-CEM [7] = assay: Protection against growth inhibition of CCRF-CEM cells in presence of 0.1 uM of Leucovorin at concentrations that inhibited the growth by […]%; assay type: functional, Homo sapiens; set-up: scale not given: the % may be the effect or the level left
# CCRF-CEM [8] = assay: Protection against growth of CCRF-CEM cells in presence of 10 uM Hypoxanthine and 10 uM Deoxycytidine, relative to control; assay type: functional, Homo sapiens
# CCRF-CEM [9] = assay: Protection against growth of CCRF-CEM cells in presence of 5 uM Thymidine and 10 uM Deoxycytidine, relative to control; assay type: functional, Homo sapiens
# CCRF-CEM [10] = assay: Protection against growth of CCRF-CEM cells in presence of 5 uM Thymidine, 10 uM Deoxycytidine and 10 uM Hypoxanthine, relative to control; assay type: functional, Homo sapiens
# CCRF-CEM [11] = assay: Protection against growth of CCRF-CEM cells in presence of 10 uM Hypoxanthine, relative to control; assay type: functional, Homo sapiens
# CCRF-CEM [12] = assay: Protection against growth of CCRF-CEM cells in presence of 10 uM Deoxycytidine, relative to control; assay type: functional, Homo sapiens
# CCRF-CEM [13] = assay: Protection against growth of CCRF-CEM cells in presence of 5 uM Thymidine, relative to control; assay type: functional, Homo sapiens
# [14] = target: Thymidylate synthase (Escherichia coli) (UniProt C3SWJ7); assay: Inhibition of TS from Escherichia coli at >2.2*10-5 nM
# [15] = target: T1, Dihydrofolate reductase (Homo sapiens); assay: Inhibition of recombinant human DHFR at >26 uM
# [16] = target: Thymidylate synthase (Escherichia coli) (UniProt C3SWJ7); assay: Inhibition of TS from Escherichia coli at >2.6*10-5 nM
# [17] = target: T1, Dihydrofolate reductase (Homo sapiens); assay: Inhibition of recombinant human DHFR at >31 uM
# [18] = target: Thymidylate synthase (Escherichia coli) (UniProt C3SWJ7); assay: Inhibition of TS from Escherichia coli at >3.2*10-5 nM
# Thymidylate synthase [19] = target: T2, Thymidylate synthase; assay: Inhibition of recombinant human TS at >3.2*10-5 nM
# Target sequence in this assay (P04818 2-313 limits assumed): as above
# [20] = target: Thymidylate synthase (Escherichia coli) (UniProt C3SWJ7); assay: Inhibition of TS from Escherichia coli at >2.3*10-5 nM
# [21] = target: Thymidylate synthase (Escherichia coli) (UniProt C3SWJ7); assay: Inhibition of TS from Escherichia coli at >3.1*10-5 nM
# Thymidylate synthase [22] = target: T2, Thymidylate synthase; assay: Inhibition of recombinant human TS at >3.1*10-5 nM
# Target sequence in this assay (P04818 2-313 limits assumed): as above
# [23] = target: Thymidylate synthase (Escherichia coli) (UniProt C3SWJ7); assay: Inhibition of TS from Escherichia coli at >2.7*10-5 nM
# [24] = target: T1, Dihydrofolate reductase (Homo sapiens); assay: Inhibition of recombinant human DHFR at >32 uM
# CCRF-CEM [25] = assay: Inhibition of growth in CCRF-CEM cells; assay type: functional, cell-based; details: Homo sapiens
# CCRF-CEM [26] = assay: Inhibition of growth in MTX-resistant CCRF-CEM cell line, R30dm cells; assay type: functional, cell-based; details: Homo sapiens
# [27] = Inhibition of DHFR from Escherichia coli
# CCRF-CEM [28] = assay: Protection against growth inhibition of CCRF-CEM cells in presence of 10 uM of Leucovorin at concentrations that inhibited the growth by 95%; assay type: functional, Homo sapiens; set-up: scale not given: the % may be the effect or the level left
# Dihydrofolate reductase = target: T3, Dihydrofolate reductase (Homo sapiens, UniProt P00374)
# T3 sequence (P00374 whole entry): T1 sequence (whole entry)
# [29] = substrate: CCc1[nH]c2nc(N)nc(O)c2c1Sc1ccc(C(=O)N[C@@H](CCC(=O)O)C(=O)O)cc1; assay: Binding with human cytosolic FPGS at <= 100 uM
# Sequence of Thymidylate synthase (Escherichia coli) (C3SWJ7 1-264): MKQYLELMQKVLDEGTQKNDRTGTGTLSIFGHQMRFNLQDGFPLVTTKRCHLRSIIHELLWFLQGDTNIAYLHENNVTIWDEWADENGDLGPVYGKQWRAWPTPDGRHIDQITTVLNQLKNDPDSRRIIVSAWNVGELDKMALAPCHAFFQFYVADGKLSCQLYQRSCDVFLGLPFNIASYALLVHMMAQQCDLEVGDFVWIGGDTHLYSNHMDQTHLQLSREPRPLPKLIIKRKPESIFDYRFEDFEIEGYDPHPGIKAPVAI
# Sequence of Thymidylate synthase (Escherichia coli, UniProt C3SWJ7) (C3SWJ7 whole entry): as the sequence (C3SWJ7 1-264) above
molecule,measurement,setting,value
CCc1[nH]c2nc(N)nc(O)c2c1Sc1ccc([N+](=O)[O-])cc1,IC50,Thymidylate synthase [1],24 µM
same,inhibition,[2],33%
same,IC50,Thymidylate synthase [3],0.24 µM
CCc1[nH]c2nc(N)nc(O)c2c1Sc1cc(C(F)(F)F)cc(C(F)(F)F)c1,inhibition,[4],0%
same,inhibition,Thymidylate synthase [5],18%
CCc1[nH]c2nc(N)nc(O)c2c1Sc1cccc2ccccc12,inhibition,[6],15%
CCc1[nH]c2nc(N)[nH]c(=O)c2c1Sc1c(C)cccc1C,IC50,Thymidylate synthase [3],26 µM
CCc1[nH]c2nc(N)[nH]c(=O)c2c1Sc1cccc2ccccc12,IC50,Thymidylate synthase [3],5.6 µM
CN(Cc1cnc2nc(N)nc(N)c2n1)c1ccc(C(=O)N[C@@H](CCC(=O)O)C(=O)O)cc1 [METHOTREXATE],EC50,R1-CCRF-CEM,0.565 µM
same,EC50,R2-CCRF-CEM,1.7 µM
same,Activity,CCRF-CEM [7],10%
same,Activity,CCRF-CEM [8],11%
same,Activity,CCRF-CEM [9],10%
same,Activity,CCRF-CEM [10],99%
same,Activity,CCRF-CEM [11],101%
same,Activity,CCRF-CEM [12],10%
same,Activity,CCRF-CEM [13],44%
CCc1[nH]c2nc(N)nc(O)c2c1Sc1ccc(Br)cc1,inhibition,[14],15%
same,inhibition,[15],14%
same,IC50,Thymidylate synthase [3],1 µM
CCc1[nH]c2nc(N)nc(O)c2c1Sc1cccc(Cl)c1,inhibition,[16],13%
same,inhibition,[17],0%
same,IC50,Thymidylate synthase [3],2.6 µM
CCc1[nH]c2nc(N)nc(O)c2c1Sc1cccc(OC)c1,inhibition,[18],5%
same,inhibition,Thymidylate synthase [19],15%
CCc1[nH]c2nc(N)nc(O)c2c1Sc1cccc(Br)c1,inhibition,[20],10%
same,IC50,Thymidylate synthase [3],1.1 µM
CCc1[nH]c2nc(N)[nH]c(=O)c2c1Sc1ccc(Cl)c(Cl)c1,IC50,Thymidylate synthase [3],0.23 µM
CCc1[nH]c2nc(N)nc(O)c2c1Sc1ccc(Cl)cc1,inhibition,[21],27%
same,inhibition,Thymidylate synthase [22],25%
CCc1[nH]c2nc(N)nc(O)c2c1Sc1ccc2ccccc2c1,IC50,Thymidylate synthase [3],5.6 µM
CCc1[nH]c2nc(N)nc(O)c2c1Sc1ccc(F)cc1,inhibition,[23],0%
same,inhibition,[24],0%
same,IC50,Thymidylate synthase [3],2.7 µM
Cc1[nH]c2nc(N)[nH]c(=O)c2c1Sc1ccc(C(=O)N[C@@H](CCC(=O)O)C(=O)O)cc1,EC50,CCRF-CEM [25],0.45 µM
same,EC50,CCRF-CEM [26],0.81 µM
same,IC50,[27],21 µM
CCc1[nH]c2nc(N)nc(O)c2c1Sc1ccc(OC)cc1,inhibition,[18],22%
same,IC50,Thymidylate synthase [3],16 µM
CCc1[nH]c2nc(N)nc(O)c2c1Sc1ccc(C(=O)N[C@@H](CCC(=O)O)C(=O)O)cc1,EC50,CCRF-CEM [25],2.7 µM
same,EC50,R1-CCRF-CEM,7.05 µM
same,EC50,R2-CCRF-CEM,12.5 µM
same,EC50,CCRF-CEM [26],2.9 µM
same,Activity,CCRF-CEM [7],95%
same,IC50,Thymidylate synthase [1],0.54 µM
same,IC50,[27],> 21 µM
same,Activity,CCRF-CEM [28],75%
same,Activity,CCRF-CEM [8],16%
same,Activity,CCRF-CEM [9],106%
same,Activity,CCRF-CEM [10],105%
same,Activity,CCRF-CEM [11],16%
same,Activity,CCRF-CEM [12],18%
same,Activity,CCRF-CEM [13],106%
same,IC50,Thymidylate synthase [3],0.09 µM
same,IC50,Dihydrofolate reductase,0.42 µM
CCc1[nH]c2nc(N)nc(O)c2c1Sc1c(C)cccc1C,inhibition,[16],0%
same,inhibition,[17],0%
CCc1[nH]c2nc(N)nc(O)c2c1Sc1ccc(Cl)c(Cl)c1,inhibition,[20],41%
B1,Km,[29],Not Active
